In brackets after ≈: the same amount, converted by molar mass.
Key:
[1] = Half life in rat liver microsomes at 1 uM measured up to 60 mins in presence of NADPH generating system; conditions: 1 h
[2] = Aqueous solubility of compound; format: physicochemical; conditions: buffer
[3] = in vitro; conditions: PAMPA
Description: Permeability of the compound by PAMPA

Row | Structure (SMILES) | t1/2 [1] | solubility [2] | Papp [3]
1 | COc1ccccc1CC(=O)NCCCn1c(=O)c2cc(F)ccc2n2c(=S)[nH]nc12 | 16.1 min | > 65 µg/mL | –
2 | Nc1nnc2n(CCc3ccccc3)c(=O)c3cc(F)ccc3n12 | 29.4 min | 2.2 µg/mL (≈ 6.8 µM) | 885 ×10⁻⁶ cm/s
3 | CN1CCN(CC(=O)NCCCn2c(=O)c3cc(F)ccc3n3c(=S)[nH]nc23)CC1 | > 30 min | > 64 µg/mL | < 1 ×10⁻⁶ cm/s
4 | O=c1c2cc(I)ccc2n2c(=S)[nH]nc2n1CCc1ccccc1 | > 30 min | < 1 µg/mL | –
5 | CC(CN(C)C)n1c(=O)c2cc(F)ccc2n2c(=S)[nH]nc12 (racemic) | > 30 min | > 47 µg/mL | 186 ×10⁻⁶ cm/s
6 | N#Cc1ccccc1CC(=O)NCCCn1c(=O)c2cc(F)ccc2n2c(=S)[nH]nc12 | > 30 min | – | –
7 | CC(C)(C)OC(=O)CC[C@H](N)C(=O)NCCOCCOCCOCCOCCC(=O)NCCCn1c(=O)c2cc(F)ccc2n2c(=S)[nH]nc12 | > 30 min | > 107 µg/mL | –
8 | CCOP(=O)(CCn1c(=O)c2cc(F)ccc2n2c(=S)[nH]nc12)OCC | > 30 min | > 59 µg/mL | –
9 | O=c1c2ccncc2n2c(=S)[nH]nc2n1CCc1ccccc1 | 15.8 min | 17.3 µg/mL (≈ 53.5 µM) | 202 ×10⁻⁶ cm/s
10 | O=c1c2cccc(F)c2n2c(=S)[nH]nc2n1CCc1ccccc1 | > 30 min | 3.4 µg/mL (≈ 9.99 µM) | 141 ×10⁻⁶ cm/s
11 | O=c1c2cc(F)ccc2n2c(=S)[nH]nc2n1Cc1ccccc1 | > 30 min | 8.3 µg/mL (≈ 25.4 µM) | 841 ×10⁻⁶ cm/s
12 | CCCn1c(=O)c2ccccc2n2c(=S)n(CN(C)C3CC3)nc12 | – | Insoluble | –
13 | CC(C)(C)OC(=O)Nc1ccc(CC(=O)NCCCn2c(=O)c3cc(F)ccc3n3c(=S)[nH]nc23)cc1 | > 30 min | – | –
14 | O=c1c2cc(F)ccc2n2c(=S)[nH]nc2n1CCc1ccncc1 | > 30 min | 10.9 µg/mL (≈ 31.9 µM) | –
15 | O=c1c2cc(F)ccc2n2c(=S)[nH]nc2n1CCC1CCC(F)(F)CC1 | > 30 min | < 1 µg/mL | 201 ×10⁻⁶ cm/s
16 | O=C(Cc1cccc(Cl)c1)NCCCn1c(=O)c2cc(F)ccc2n2c(=S)[nH]nc12 | 8.4 min | > 66 µg/mL | –
17 | NCCn1c(=O)c2cc(F)ccc2n2c(=S)[nH]nc12 | > 30 min | > 41 µg/mL | –
18 | CCn1c(=O)c2ccccc2n2c(=S)[nH]nc12 | > 30 min | > 36 µg/mL | 427 ×10⁻⁶ cm/s
19 | CC(C)(C)OC(=O)CC[C@H](NC(=O)OC(C)(C)C)C(=O)NCCCn1c(=O)c2cc(F)ccc2n2c(=S)[nH]nc12 | 3.8 min | 41.6 µg/mL (≈ 71.9 µM) | –
20 | CC(C)(C)OC(=O)N1CCN(CCn2c(=O)c3cc(F)ccc3n3c(=S)[nH]nc23)CC1 | 26.3 min | 20.5 µg/mL (≈ 45.7 µM) | –
21 | CN1CCN(CCn2c(=O)c3cc(F)ccc3n3c(=S)[nH]nc23)CC1 | > 30 min | > 54 µg/mL | –
22 | O=c1c2cc(F)ccc2n2c(=S)[nH]nc2n1CCc1ccccc1 | > 30 min | – | 77 ×10⁻⁶ cm/s
23 | N[C@@H](CCC(=O)O)C(=O)NCCCn1c(=O)c2cc(F)ccc2n2c(=S)[nH]nc12 | > 30 min | 32 µg/mL (≈ 75.8 µM) | –
24 | CC(C)(C)[C@H]1CC[C@H](C(=O)NCCCn2c(=O)c3cc(F)ccc3n3c(=S)[nH]nc23)CC1 | > 30 min | 1.1 µg/mL (≈ 2.39 µM) | –
25 | O=c1c2cc(F)ccc2n2c(=S)[nH]nc2n1CCN1CCC(F)(F)CC1 | > 30 min | 20.2 µg/mL (≈ 52.7 µM) | 234 ×10⁻⁶ cm/s

Row | Structure (SMILES) | t1/2 [1] | solubility [2] | Papp [3]
26 | CC(C)(C)OC(=O)N1CC(CCn2c(=O)c3cc(F)ccc3n3c(=S)[nH]nc23)C1 | – | 15 µg/mL (≈ 35.8 µM) | 229 ×10⁻⁶ cm/s
27 | O=c1c2cc(F)ccc2n2c(=S)[nH]nc2n1CCC(F)(F)F | > 30 min | 17.3 µg/mL (≈ 52.1 µM) | 117 ×10⁻⁶ cm/s
28 | O=C(Cc1ccc(F)cc1)NCCCn1c(=O)c2cc(F)ccc2n2c(=S)[nH]nc12 | 26.3 min | – | –
29 | O=c1c2cc(F)ccc2n2c(=S)[nH]nc2n1CCc1ccccc1Cl | 22.8 min | 3 µg/mL (≈ 8 µM) | –
30 | CC(C)n1c(=O)c2ccccc2n2c(=S)[nH]nc12 | – | 19.5 µg/mL (≈ 74.9 µM) | –
31 | CCn1c(=O)c2cc(F)ccc2n2c(=S)[nH]nc12 | > 30 min | > 39 µg/mL | –
32 | O=C(Cc1cccnc1)NCCCn1c(=O)c2cc(F)ccc2n2c(=S)[nH]nc12 | > 30 min | – | –
33 | Cc1ccc(CC(=O)NCCCn2c(=O)c3cc(F)ccc3n3c(=S)[nH]nc23)cc1 | 23.9 min | – | –
34 | NCCOCCOCCOCCC(=O)NCCCn1c(=O)c2cc(F)ccc2n2c(=S)[nH]nc12 | > 30 min | 36.1 µg/mL (≈ 72.7 µM) | –
35 | O=C(Cc1ccc(O)cc1)NCCCn1c(=O)c2cc(F)ccc2n2c(=S)[nH]nc12 | > 30 min | – | –
36 | COc1ccc(CC(=O)NCCCn2c(=O)c3cc(F)ccc3n3c(=S)[nH]nc23)cc1 | > 30 min | – | –
37 | CC(C)OCCCn1c(=O)c2cc(Cl)ccc2n2c(=S)[nH]nc12 | – | 8.6 µg/mL (≈ 24.4 µM) | –
38 | O=C(Cc1cccc(F)c1)NCCCn1c(=O)c2cc(F)ccc2n2c(=S)[nH]nc12 | 26.5 min | > 63 µg/mL | –
39 | CC(C)(C)OC(=O)CC[C@@H](NC(=O)OC(C)(C)C)C(=O)NCCCn1c(=O)c2cc(F)ccc2n2c(=S)[nH]nc12 | 25.1 min | 20.4 µg/mL (≈ 35.3 µM) | –
40 | CC(C)(C)OC(=O)NCCOCCOCCOCCC(=O)NCCCn1c(=O)c2cc(F)ccc2n2c(=S)[nH]nc12 | 27.9 min | > 88 µg/mL | –
41 | N#Cc1ccc(CC(=O)NCCCn2c(=O)c3cc(F)ccc3n3c(=S)[nH]nc23)cc1 | > 30 min | – | –
42 | O=c1c2cc(F)ccc2n2c(=S)[nH]nc2n1CCCc1ccccc1 | 8.8 min | < 1 µg/mL | –
43 | CC(C)NC(=O)CCn1c(=O)c2cc(Cl)ccc2n2c(=S)[nH]nc12 | – | 8.1 µg/mL (≈ 22.1 µM) | –
44 | O=C(NCCCn1c(=O)c2cc(F)ccc2n2c(=S)[nH]nc12)C1CCCNC1 (racemic) | > 30 min | 29.6 µg/mL (≈ 73.2 µM) | –
45 | O=c1c2ncccc2n2c(=S)[nH]nc2n1CCc1ccccc1 | > 30 min | 26.9 µg/mL (≈ 83.2 µM) | –
46 | O=C(NCCCn1c(=O)c2cc(F)ccc2n2c(=S)[nH]nc12)C1CCOCC1 | – | < 1 µg/mL | 8 ×10⁻⁶ cm/s
47 | O=c1c2cccnc2n2c(=S)[nH]nc2n1CCc1ccccc1 | > 30 min | 4.9 µg/mL (≈ 15.2 µM) | –
48 | CC(C)CNC(=O)CCn1c(=O)c2ccccc2n2c(=S)[nH]nc12 | – | 30.8 µg/mL (≈ 89.2 µM) | –
49 | O=C(NCCCn1c(=O)c2cc(F)ccc2n2c(=S)[nH]nc12)C1CCNCC1 | > 30 min | > 60 µg/mL | –
50 | CC(C)(C)OC(=O)CC[C@H](N)C(=O)NCCCn1c(=O)c2cc(F)ccc2n2c(=S)[nH]nc12 | > 30 min | 37.5 µg/mL (≈ 78.4 µM) | –

Row | Structure (SMILES) | t1/2 [1] | solubility [2] | Papp [3]
51 | CS(=O)(=O)NCCn1c(=O)c2cc(F)ccc2n2c(=S)[nH]nc12 | > 30 min | > 53 µg/mL | –
52 | O=C(NCCCn1c(=O)c2cc(F)ccc2n2c(=S)[nH]nc12)c1ccc(Cn2ccnc2)cc1 | > 30 min | – | –
53 | NC1CCC(C(=O)NCCCn2c(=O)c3cc(F)ccc3n3c(=S)[nH]nc23)CC1 (racemic) | > 30 min | 38.8 µg/mL (≈ 92.7 µM) | –
54 | NCCCn1c(=O)c2cccc(F)c2n2c(=S)[nH]nc12 | > 30 min | – | –
55 | Cc1nnc2n(CCc3ccccc3)c(=O)c3cc(F)ccc3n12 | 10.7 min | 11 µg/mL (≈ 34.1 µM) | –
56 | O=c1c2cc(F)ccc2n2c(=S)[nH]nc2n1CCP(=O)(O)O | – | > 51 µg/mL | –
57 | Cc1ccc2c(c1)c(=O)n(CCc1ccccc1)c1n[nH]c(=S)n21 | > 30 min | < 1 µg/mL | –
58 | O=C(Cc1ccccc1C(F)(F)F)NCCCn1c(=O)c2cc(F)ccc2n2c(=S)[nH]nc12 | 3.7 min | – | –
59 | O=C(Cc1ccncc1)NCCCn1c(=O)c2cc(F)ccc2n2c(=S)[nH]nc12 | > 30 min | – | < 1 ×10⁻⁶ cm/s
60 | O=c1c2cc(N3CCOCC3)ccc2n2c(=S)[nH]nc2n1CCc1ccccc1 | > 30 min | 3.4 µg/mL (≈ 8.34 µM) | –
61 | O=C(Cc1cccc(C(F)(F)F)c1)NCCCn1c(=O)c2cc(F)ccc2n2c(=S)[nH]nc12 | 17.3 min | – | –
62 | O=C(Cc1ccccc1)NCCCn1c(=O)c2cc(F)ccc2n2c(=S)[nH]nc12 | 18.7 min | – | –
63 | CCCn1c(=O)c2cc(F)ccc2n2c(=S)[nH]nc12 | > 30 min | > 28 µg/mL | –
64 | O=C(NCCCn1c(=O)c2cc(F)ccc2n2c(=S)[nH]nc12)C1CCCCN1 (racemic) | > 30 min | > 60 µg/mL | –
65 | NCCCCCC(=O)NCCCn1c(=O)c2cc(F)ccc2n2c(=S)[nH]nc12 | > 30 min | 31.8 µg/mL (≈ 78.2 µM) | –
66 | CS(=O)(=O)NCCCn1c(=O)c2cc(F)ccc2n2c(=S)[nH]nc12 | > 30 min | 34 µg/mL (≈ 91.5 µM) | –
67 | CCCn1c(=O)c2ccccc2n2c(=S)[nH]nc12 | > 30 min | – | –
68 | O=c1c2ccccc2n2c(=O)[nH]nc2n1CCc1ccccc1 | – | < 1 µg/mL | –
69 | CN1CCCC1CCn1c(=O)c2cc(F)ccc2n2c(=S)[nH]nc12 (racemic) | > 30 min | 17.8 µg/mL (≈ 51.2 µM) | –
70 | O=C(Cc1ccccn1)NCCCn1c(=O)c2cc(F)ccc2n2c(=S)[nH]nc12 | > 30 min | – | –
71 | O=C(CC1CCNCC1)NCCCn1c(=O)c2cc(F)ccc2n2c(=S)[nH]nc12 | > 30 min | 37.5 µg/mL (≈ 89.6 µM) | –
72 | CCCn1c(=O)c2ccccc2n2c(=S)n(CN(CC)CC3CC3)nc12 | – | 8.7 µg/mL (≈ 23.4 µM) | –
73 | O=C(Cc1ccc(Br)cc1)NCCCn1c(=O)c2cc(F)ccc2n2c(=S)[nH]nc12 | 20.6 min | < 1 µg/mL | –
74 | N[C@@H](CCC(=O)O)C(=O)NCCOCCOCCOCCOCCC(=O)NCCCn1c(=O)c2cc(F)ccc2n2c(=S)[nH]nc12 | > 30 min | > 99 µg/mL | –
75 | CC(=O)NCCn1c(=O)c2cc(F)ccc2n2c(=S)[nH]nc12 | > 30 min | > 47 µg/mL | –

Source: ChEMBL document CHEMBL4673282, “Identification of a New Heterocyclic Scaffold for Inhibitors of the Polo-Box Domain of Polo-like Kinase 1” (J Med Chem, 2020)
